From ChEMBL document CHEMBL5579889, “Structure-Based Design and Development of Phosphine Oxides as a Novel Chemotype for Antibiotics that Dysregulate Bacterial ClpP Proteases” (J Med Chem, 2024) come the findings set out here.

Values after ≈ are worked out from the molar mass of the structure shown. Active and inactive are the calls of the source. The calls are words filed in the database; no cut-off is given here. Bridge positions count the residues as written; N and C are the ends. Square brackets hold non-standard residues; d marks the D form. Peptide text beside a SMILES is read from it. * marks the point of attachment. Phe(3,5-F2) = N[C@@H](Cc1cc(F)cc(F)c1)C(=O)O; Pro(4R-Me) = C[C@H]1CN[C@H](C(=O)O)C1; aThr = C[C@H](O)[C@H](N)C(=O)O; Pip = O=C(O)[C@@H]1CCCCN1; X1 = CCC/C=C/C=C/C(=O)* A value given as a limit tells only on which side of the number the result lay.

In assay [1] the target is ATP-dependent Clp protease proteolytic subunit (Neisseria gonorrhoeae, UniProt Q5F914). Put plainly: Activation of N-terminal His-tagged recombinant Neisseria gonorrhoeae ClpP expressed in Escherichia coli SG1146(DE3) assessed as degradation of casein-FITC preincubated for 10 mins followed by casein addition measured for over 100 mins by fluorescence based assay.
Assay [2] concerns the target ATP-dependent Clp protease proteolytic subunit (Escherichia coli (strain K12), UniProt P0A6G7). Put plainly: Activation of N-terminal His-tagged recombinant Escherichia coli ClpP expressed in Escherichia coli SG1146(DE3) assessed as degradation of casein-FITC preincubated for 10 mins followed by casein addition measured for over 100 mins by fluorescence based assay.

The target in assay [3] is ATP-dependent Clp protease proteolytic subunit, mitochondrial (Homo sapiens) (UniProt Q16740). In words: Activation of N-terminal His-tagged recombinant human ClpP expressed in Escherichia coli SG1146(DE3) assessed as degradation of casein-FITC at 100 uM preincubated for 10 mins followed by casein addition measured for over 100 mins by fluorescence based assay. Particulars: time > 110.0 min.

For assay [4], the system named is Streptococcus pneumoniae. Put plainly: Activation of recombinant Streptococcus pneumoniae ClpP extracted from Escherichia coli SG1146(DE3) assessed as degradation of casein-FITC at 100 uM preincubated for 10 mins followed by casein addition measured for over 100 mins by fluorescence based assay. The conditions noted are these: time > 110.0 min.
Assay [5] has as its target T1, ATP-dependent Clp protease proteolytic subunit (Staphylococcus aureus (strain NCTC 8325)) (UniProt Q2G036).
T1 sequence (whole entry): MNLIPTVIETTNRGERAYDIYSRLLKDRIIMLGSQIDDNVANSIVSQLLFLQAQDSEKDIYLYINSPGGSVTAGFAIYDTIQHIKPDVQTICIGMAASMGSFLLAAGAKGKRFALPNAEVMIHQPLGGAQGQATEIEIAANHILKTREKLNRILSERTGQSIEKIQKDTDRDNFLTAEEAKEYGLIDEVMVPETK
Put plainly: Activation of N-terminal His-tagged recombinant Staphylococcus aureus ClpP expressed in Escherichia coli SG1146(DE3) assessed as degradation of casein-FITC at 100 uM preincubated for 10 mins followed by casein addition measured for over 100 mins by fluorescence based assay. The conditions noted are these: time > 110.0 min.

The subject of assay [6] is Neisseria gonorrhoeae. Put plainly: Antibacterial activity against Neisseria gonorrhoeae WHO P measured after 16 to 18 hrs by OD based assay. The conditions noted are these: time 16-18 hrs. The class given is functional.
In assay [7] the test system is Neisseria gonorrhoeae. Put plainly: Antibacterial activity against Neisseria gonorrhoeae MS11 measured after 16 to 18 hrs by OD based assay. The assay is classed as functional. Particulars: time 16-18 hrs.
In assay [8] the test system is Neisseria meningitidis. Put plainly: Antibacterial activity against wild-type Neisseria meningitidis H44/76 measured after 16 to 18 hrs by OD based assay. The assay is classed as functional. The conditions noted are these: time 16-18 hrs.
The test system of assay [9] is Neisseria meningitidis. In words: Antibacterial activity against Neisseria meningitidis NGPB24 measured after 16 to 18 hrs by OD based assay. The conditions noted are these: time 16-18 hrs. The assay is classed as functional.
The subject of assay [10] is Neisseria meningitidis. In words: Antibacterial activity against Neisseria meningitidis EG329 measured after 16 to 18 hrs by OD based assay. The class given is functional. The conditions noted are these: time 16-18 hrs.
In assay [11] the test system is Neisseria meningitidis. Put plainly: Antibacterial activity against Neisseria meningitidis SWZ107 measured after 16 to 18 hrs by OD based assay. The assay is classed as functional. Particulars: time 16-18 hrs.
For assay [12], the system named is Neisseria gonorrhoeae. In words: Antibacterial activity against Neisseria gonorrhoeae WHO V measured after 16 to 18 hrs by OD based assay. The conditions noted are these: time 16-18 hrs. The assay is classed as functional.
In assay [13] the test system is Neisseria meningitidis. In words: Antibacterial activity against Neisseria meningitidis 88/03415 measured after 16 to 18 hrs by OD based assay. The assay is classed as functional. Particulars: time 16-18 hrs.
Assay [14] relates to Neisseria gonorrhoeae. Put plainly: Antibacterial activity against Neisseria gonorrhoeae WHO L measured after 16 to 18 hrs by OD based assay. The class given is functional. Particulars: time 16-18 hrs.
The test system of assay [15] is Neisseria gonorrhoeae. In words: Antibacterial activity against Neisseria gonorrhoeae FA19 measured after 16 to 18 hrs by OD based assay. The class given is functional. The conditions noted are these: time 16-18 hrs.
Assay [16] has as its system Neisseria meningitidis. Put plainly: Antibacterial activity against Neisseria meningitidis H44/76 harboring deltaclpP measured after 16 to 18 hrs by OD based assay. The conditions noted are these: time 16-18 hrs. The assay is classed as functional.
Assay [17] has as its system Neisseria gonorrhoeae. Put plainly: Antibacterial activity against Neisseria gonorrhoeae WHO M measured after 16 to 18 hrs by OD based assay. The assay is classed as functional. Particulars: time 16-18 hrs.
The subject of assay [18] is Neisseria gonorrhoeae. In words: Antibacterial activity against Neisseria gonorrhoeae WHO G measured after 16 to 18 hrs by OD based assay. The class given is functional. Particulars: time 16-18 hrs.
The test system of assay [19] is Neisseria gonorrhoeae. In words: Antibacterial activity against Neisseria gonorrhoeae WHO Y measured after 16 to 18 hrs by OD based assay. The conditions noted are these: time 16-18 hrs. The class given is functional.
The test system of assay [20] is Neisseria meningitidis. In words: Antibacterial activity against Neisseria meningitidis AK50 measured after 16 to 18 hrs by OD based assay. Particulars: time 16-18 hrs. The assay is classed as functional.
Assay [21] has as its system Neisseria meningitidis. In words: Antibacterial activity against Neisseria meningitidis NGF26 measured after 16 to 18 hrs by OD based assay. The class given is functional. The conditions noted are these: time 16-18 hrs.
In assay [22] the test system is Neisseria meningitidis. In words: Antibacterial activity against Neisseria meningitidis BZ133 measured after 16 to 18 hrs by OD based assay. The conditions noted are these: time 16-18 hrs. The assay is classed as functional.
Assay [23] relates to Neisseria gonorrhoeae. Put plainly: Antibacterial activity against Neisseria gonorrhoeae WHO N measured after 16 to 18 hrs by OD based assay. The assay is classed as functional. Particulars: time 16-18 hrs.
Assay [24] concerns Neisseria meningitidis. Put plainly: Antibacterial activity against Neisseria meningitidis NG144/82 measured after 16 to 18 hrs by OD based assay. The assay is classed as functional. Particulars: time 16-18 hrs.
Assay [25] deals with Neisseria meningitidis. In words: Antibacterial activity against Neisseria meningitidis BZ169 measured after 16 to 18 hrs by OD based assay. The class given is functional. Particulars: time 16-18 hrs.
Assay [26] concerns Neisseria gonorrhoeae. Put plainly: Antibacterial activity against Neisseria gonorrhoeae WHO X measured after 16 to 18 hrs by OD based assay. The class given is functional. Particulars: time 16-18 hrs.
The subject of assay [27] is Neisseria gonorrhoeae. Put plainly: Antibacterial activity against Neisseria gonorrhoeae WHO K measured after 16 to 18 hrs by OD based assay. The assay is classed as functional. The conditions noted are these: time 16-18 hrs.
The test system of assay [28] is Neisseria gonorrhoeae. In words: Antibacterial activity against Neisseria gonorrhoeae WHO Z measured after 16 to 18 hrs by OD based assay. The conditions noted are these: time 16-18 hrs. The class given is functional.

The term MIC denotes the least concentration at which growth counts as inhibited.

Chain of ATP-dependent Clp protease proteolytic subunit, mitochondrial (Homo sapiens) (Q16740 whole entry): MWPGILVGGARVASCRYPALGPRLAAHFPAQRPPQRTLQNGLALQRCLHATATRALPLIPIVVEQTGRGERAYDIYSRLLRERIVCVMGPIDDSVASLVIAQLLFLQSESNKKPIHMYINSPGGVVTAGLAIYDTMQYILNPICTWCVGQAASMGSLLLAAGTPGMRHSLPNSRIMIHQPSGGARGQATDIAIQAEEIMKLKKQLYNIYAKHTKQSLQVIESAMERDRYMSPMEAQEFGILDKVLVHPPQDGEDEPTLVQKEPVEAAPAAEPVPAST
Chain of ATP-dependent Clp protease proteolytic subunit (Escherichia coli (strain K12), UniProt P0A6G7) (P0A6G7 whole entry): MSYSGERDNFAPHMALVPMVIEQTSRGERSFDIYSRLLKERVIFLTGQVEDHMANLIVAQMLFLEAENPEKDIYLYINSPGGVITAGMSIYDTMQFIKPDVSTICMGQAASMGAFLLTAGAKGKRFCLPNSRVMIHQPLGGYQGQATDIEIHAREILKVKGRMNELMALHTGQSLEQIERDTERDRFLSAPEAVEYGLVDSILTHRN
Chain of ATP-dependent Clp protease proteolytic subunit (Neisseria gonorrhoeae, UniProt Q5F914) (Q5F914 whole entry): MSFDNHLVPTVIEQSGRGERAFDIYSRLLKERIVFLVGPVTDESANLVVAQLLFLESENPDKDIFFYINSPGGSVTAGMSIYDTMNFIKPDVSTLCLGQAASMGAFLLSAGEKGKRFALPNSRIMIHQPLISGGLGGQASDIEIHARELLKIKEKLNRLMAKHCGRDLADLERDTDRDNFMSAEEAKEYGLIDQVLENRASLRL

For the molecule `CC(C)(C(=O)NCCSc1ccccc1C(F)(F)F)P(=O)(c1ccc(C(F)(F)F)cc1)c1ccc(C(F)(F)F)cc1`, the values for the EC50 in [1] and in assay [2] were 3.28 µM and 4.51 µM, respectively.

Take `O=C(CP(=O)(c1ccc(C(F)(F)F)cn1)c1ccc(C(F)(F)F)cn1)NCCSc1ccccc1C(F)(F)F`: the results for the EC50 in assay [1] and in assay [2] were 4.9 µM and 1.79 µM, respectively. In addition, the outcome in assay [3], in assay [4] and in assay [5] was inactive.

With `CCCC/C=C/C(=O)N[C@@H](Cc1ccccc1)C(=O)N[C@H]1COC(=O)[C@@H]2CCCN2C(=O)[C@H](C)NC(=O)[C@@H]2CCCCN2C(=O)[C@@H]2CCCN2C1=O`, the outcome in assay [4] and in assay [5] was inactive.

As to `CC(C(=O)NCCSc1ccccc1C(F)(F)F)P(=O)(c1ccccn1)c1ccccn1` (configuration not stated), the result in [3], in assay [4] and in assay [5] was inactive.

As to `CC(C(=O)NCCSc1ccccc1C(F)(F)F)P(=O)(c1ccc(C(F)(F)F)cn1)c1ccc(C(F)(F)F)cn1` (configuration not stated), the EC50 is 2.75 µM in assay [1] and 2.05 µM in [2]. The result in [3], in assay [4] and in assay [5] was inactive.

In the case of `CCC/C=C/C=C/C(=O)N[C@@H](Cc1cc(F)cc(F)c1)C(=O)N[C@@H]1C(=O)N2CCC[C@H]2C(=O)N2CCCC[C@H]2C(=O)N[C@@H](C)C(=O)N2C[C@H](C)C[C@H]2C(=O)O[C@H]1C` (X1-[Phe(3,5-F2)][aThr]P[Pip]A[Pro(4R-Me)]; ester 2-C), the MIC in assay [6] was 4.7 µM (≈ 3.75 µg/mL); in [7], 0.3 µM (≈ 0.239 µg/mL); in assay [8], less than 0.3 µM; in [9], 0.3 µM (≈ 0.239 µg/mL); in [10] it was less than 0.3 µM; in assay [11], less than 0.3 µM. Further, the MIC was 3.1 µM (≈ 2.47 µg/mL) in assay [12]; 0.3 µM (≈ 0.239 µg/mL) in assay [13]; 0.3 µM (≈ 0.239 µg/mL) in [14]; 1.6 µM (≈ 1.28 µg/mL) in assay [15]; more than 25 µM in assay [16]; 0.3 µM (≈ 0.239 µg/mL) in assay [17]. Also, the MIC in assay [18] was found to be 0.3 µM (≈ 0.239 µg/mL); in [19], 0.3 µM (≈ 0.239 µg/mL); in assay [20], 1.6 µM (≈ 1.28 µg/mL); in assay [21], 2.4 µM (≈ 1.91 µg/mL); in assay [22], 0.3 µM (≈ 0.239 µg/mL); in assay [23], 0.3 µM (≈ 0.239 µg/mL). Besides, the MIC in assay [24], in assay [25], in assay [26], in assay [27] and in assay [28] was 0.3 µM (≈ 0.239 µg/mL) throughout. Also, the EC50 came out at 0.23 µM in assay [1] and 4.69 µM in assay [2].
